Patent US11279703B2, “Fused pyrimidine compounds as BRD4 and JAK2 dual inhibitors and methods for use thereof” (APTOSE BIOSCIENCES INC., priority 2016, dated 2022)

Each molecule was assayed against BRD4-BD1 (Homo sapiens (Human), UniProt O60885) (assay: AlphaLisa bromodomain binding assay, BRD4-BD1). Conditions: Table 1; read-out: BRD4 IC50.
Source text: An AlphaLisa assay was used to observe bromodomain binding and measure IC50s for the compounds disclosed herein. An AlphaLisa assay is a bead-based assay used to detect interactions between bromodomains and polyacetylated histone peptides. Donor and acceptor beads bound to target and ligand are brought into proximity by this protein-protein interaction.
Equipment Required • 1. […] Plate centrifuge • 3. Plate shaker • 4. […] Single channel and multi-channel pipettes • 6. Microplate reader (Pherastar)
Stock and Final Assay Concentrations (FAC) • 1. All reference and test compounds are made at a concentration of 10 mM in DMSO. Compounds are serially diluted in DMSO and a FAC starting from 10 μM to 10 point 3 fold serial dilutions is arrived. FAC of DMSO is 1%. • 2. Enzyme stock and FAC
Biotinylated substrate (Acetylated histone H4, biotinylated substrate—cat no. AS64989-025, Anaspec) stock and FAC
• 4. Acceptor and donor beads stock and FAC
Buffers • For the enzyme and substrate dilution following buffer is used (for 50 ml) • HEPES: 50 mM 2.5 ml • NaCl: 25 mM 1.25 ml • DTT: 10 mM 0.05 ml • BSA: 0.1% 0.05 g • MilliQ water: 45.7 ml • For dilution of acceptor and donor beads AlphaLISA 5× epigenetics Buffer Perkin Elmer (Cat: AL008C) is used at 1× concentration.
Procedure • 1. […] Tap the plate gently • 3. […] Cover with plate sealer • 5. […] Incubate the plate at room temperature for 10 minutes • 7. Add 10 μl of the substrate • 8. Cover with plate sealer • 9. […] Cover with plate sealer • 14. […] Cover with plate sealer • 18.
The percent inhibition is calculated in the excel analysis template and the IC50 values are subsequently determined using a sigmoidal dose-response curve (variable slope) using GraphPad Prism® 5 software.

| IC50 [nM] | SMILES |
| --- | --- |
| 94 | CC(C)(C)S(=O)(=O)Nc1cccc(Nc2nc(NC3CCNCC3)nc3sccc23)c1 [drawing 49] |
| 6 | CC(C)(C)S(=O)(=O)Nc1cc(-n2ccc3cnc(Nc4ccc(N5CCNCC5)c(F)c4)nc32)ccc1F [drawing 50] |
| 63 | CN(C)C1CCN(c2ccc(Nc3ncc4ccn(-c5ccc(F)c(NS(=O)(=O)C(C)(C)C)c5)c4n3)cc2F)CC1 [drawing 48] |
| 94 | CN1CCC(NC(=O)c2ccc(Nc3ncc4ccn(-c5ccc(F)c(NS(=O)(=O)C(C)(C)C)c5)c4n3)cc2F)CC1 [drawing 47] |

Same assay, conditions: Table 2; read-out: BRD4 IC50

| SMILES | IC50 [nM] |
| --- | --- |
| CC(C)(C)S(=O)(=O)Nc1cccc(Nc2nc(NC3CCNCC3)nc3sccc23)c1 [drawing 51] | 94 |
| CC(C)(C)S(=O)(=O)Nc1cccc(Nc2nc(NC3CCNC3)nc3sccc23)c1 (centres unmarked) [drawing 54] | 1700 |
| CN1CCC(Nc2nc(Nc3ccc4c(c3)N(S(=O)(=O)C(C)(C)C)CC4)c3ccsc3n2)CC1 [drawing 55] | 160 |
| CC(C)(C)S(=O)(=O)N1CCc2ccc(Nc3nc(NC4CCNC4)nc4sccc34)cc21 (centres unmarked) [drawing 58] | 2600 |
| CN1CCC(Nc2nc(-n3ccc(C(=O)NC4CC4)c3)c3ccsc3n2)CC1 [drawing 59] | 450 |

Second part, the molecule after the results:

| IC50 [nM] | SMILES |
| --- | --- |
| 399 | O=C(NC1CC1)c1ccn(-c2nc(NC3CCNCC3)nc3sccc23)c1 [drawing 60] |
| 1000 | CC(C)(C)S(=O)(=O)N1CCc2ccc(Nc3nc(NCC4CCNCC4)nc4sccc34)cc21 [drawing 56] |
| 1200 | CC(C)(C)S(=O)(=O)Nc1cccc(Nc2nc(NCC3CCNCC3)nc3sccc23)c1 [drawing 53] |
| 388 | CN1CCN(c2ccc(Nc3nc(Nc4cccc(NS(=O)(=O)C(C)(C)C)c4)c4ccsc4n3)cc2)CC1 [drawing 52] |
| 3200 | CC(C)(C)S(=O)(=O)N1CCc2ccc(Nc3nc(NC4CCOC4)nc4sccc34)cc21 (centres unmarked) |

Same assay, conditions: Table 5; read-out: BRD4 IC50

| IC50 [nM] | SMILES |
| --- | --- |
| 220 | CN1CCN(c2ccc(Nc3ncc4ccn(-c5cccc(NS(=O)(=O)C(C)(C)C)c5)c4n3)cc2)CC1 [drawing 73] |

Same assay, conditions: Table 6; read-out: BRD4(1) IC50

| SMILES | IC50 [nM] |
| --- | --- |
| Cc1noc(C)c1-c1cccc(-c2c[nH]c3nc(N4CCN(C)CC4)ncc23)c1 | 7190 |
| CN1CCN(c2ccc(Nc3ncc4ccn(-c5cccc(NS(=O)(=O)C(C)(C)C)c5)c4n3)cc2)CC1 [drawing 288] | 5010 |
| CNCCNc1ncc2c(-c3cccc(-c4c(C)noc4C)c3)cn(C)c2n1 | 7500 |
| Cc1cnc(Nc2ccc(N3CCN(C)CC3)cc2)cc1Nc1cccc(NS(=O)(=O)C(C)(C)C)c1 | 6310 |
| CNCCCOc1ccc(Nc2ncc3ccn(-c4cccc(NS(=O)(=O)C(C)(C)C)c4)c3n2)cc1F [drawing 466] | 200 |
| CC(C)(C)S(=O)(=O)Nc1cccc(Nc2nc(NC3CCNC3)nc3sccc23)c1 (centres unmarked) [drawing 222] | 2380 |
| Cc1noc(C)c1-c1cccc(-c2cn(C)c3nc(NC4CCNCC4)ncc23)c1 | 4400 |
| CC1=NCC(C)=C1C1CCCC(c2c[nH]c3nc(N4CCNCC4)ncc23)C1 (centres unmarked) | 4060 |
| CC(C)(C)S(=O)(=O)Nc1cccc(Nc2nc(NC3CCNCC3)nc3sccc23)c1 [drawing 151] | 94 |
| CN1CCN(c2ccc(Nc3ncc4ccn(-c5ccc(Cl)c(NS(=O)(=O)C6CC6)c5)c4n3)cc2)CC1 | 1700 |
| CC(C)(C)S(=O)(=O)N1CCc2ccc(Nc3nc(NCC4CCNCC4)nc4sccc34)cc21 [drawing 218] | 2170 |
| CN1CCN(c2ccc(Nc3nc4c(c(Nc5cccc(NS(=O)(=O)C(C)(C)C)c5)n3)COC4)cc2)CC1 [drawing 188] | 526 |
| CN1CCN(c2cccc(Nc3nc(Nc4cccc(NS(=O)(=O)C(C)(C)C)c4)c4ccsc4n3)c2)CC1 | 5020 |
| O=C1NCCc2c1ccn2-c1cnc(Nc2ccc(F)cc2)nc1 | 11200 |
| CC(C)(C)S(=O)(=O)N1CCc2ccc(Nc3nc(NC4CCNCC4)nc4c3COC4)cc21 | 1580 |
| CN1CCC(Nc2nc(Nc3ccc4c(c3)N(S(=O)(=O)C(C)(C)C)CC4)c3ccsc3n2)CC1 [drawing 185] | 220 |
| CNc1ncc2c(-c3cccc(-c4c(C)noc4C)c3)c[nH]c2n1 | 10000 |
| CC(C)(C)S(=O)(=O)Nc1cccc(-n2ccc3cnc(Nc4ccc5c(c4)CCN4CCNCC54)nc32)c1 (centres unmarked) | 750 |
| CC(C)(C)S(=O)(=O)N1CCc2ccc(Nc3nc(NC4CCNCC4)nc4sccc34)cc21 | 640 |
| CC(C)(C)S(=O)(=O)Nc1cccc(Nc2nc(NC3CCNCC3)nc3sccc23)c1 [drawing 159] | 344 |
| CN1CCC(NC(=O)c2ccc(Nc3ncc4ccn(-c5cccc(NS(=O)(=O)C(C)(C)C)c5)c4n3)cc2)CC1 | 407 |
| CN1CCC(Nc2nc(-n3ccc(C(=O)NC4CC4)c3)c3ccsc3n2)CC1 [drawing 230] | 2200 |
| CN1CCN(c2ccc(Nc3ncc4ccn(-c5cccc(NS(=O)(=O)C(C)(C)C)c5)c4n3)cc2)CC1 [drawing 275] | 242 |
| CNCCCOc1ccc(Nc2ncc3ccn(-c4cccc(NS(=O)(=O)C(C)(C)C)c4)c3n2)cc1F [drawing 448] | 337 |

More lines, now with the values ahead:

| IC50 [nM] | SMILES |
| --- | --- |
| 608 | CC(C)(C)S(=O)(=O)Nc1cccc(Nc2nc(NC3CCNCC3)nc3ccsc23)c1 |
| 318 | Cc1ccc(Nc2nc(NC3CCNCC3)nc3sccc23)cc1NS(=O)(=O)C(C)(C)C |
| 7400 | CC(C)(C)S(=O)(=O)Nc1ccc(Nc2nc(NC3CCNCC3)nc3sccc23)cc1 |
| 1340 | Cc1cnc(NC2CCN(C)CC2)nc1Nc1cccc(NS(=O)(=O)C(C)(C)C)c1 |
| 581 | CN1CCC(c2ccc(Nc3ncc4ccn(-c5cccc(NS(=O)(=O)C(C)(C)C)c5)c4n3)cc2)CC1 |
| 3200 | CN1CCN(c2ccc(Nc3nc4c(c(Nc5cccc(NS(=O)(=O)C(C)(C)C)c5)n3)CCNC4)cc2)CC1 |
| 180 | CN1CCC(Nc2nc(Nc3ccc(Cl)c(NS(=O)(=O)C(C)(C)C)c3)c3ccsc3n2)CC1 |
| 1830 | O=C(NC1CC1)c1ccn(-c2nc(NC3CCNCC3)nc3sccc23)c1 [drawing 229] |
| 4890 | Cc1noc(C)c1-c1ccc2nc(N)sc2c1 |
| 3230 | CNCCNc1ncc2c(-c3cccc(-c4c(C)noc4C)c3)c[nH]c2n1 |
| 1780 | O=C1NCCc2c1ccn2-c1cnc(Nc2ccccc2)nc1 |
| 4560 | CN1CCN(c2ccc(Nc3nc(Nc4ccc5c(c4)N(S(=O)(=O)C(C)(C)C)CC5)c4ccsc4n3)cc2)CC1 |
| 3610 | CC(C)(C)S(=O)(=O)N1CCc2ccc(Nc3nc(Nc4cccnc4)nc4c3COC4)cc21 |
| 376 | CN1CCC(Nc2nc(Nc3cccc(NS(=O)(=O)C(C)(C)C)c3)c3ccsc3n2)CC1 |
| 2320 | CN1CCC(Nc2nc3c(c(Nc4cccc(NS(=O)(=O)C(C)(C)C)c4)n2)COC3)CC1 |
| 989 | COc1cc(Nc2ncc3ccn(-c4ccc(F)c(NS(=O)(=O)C5CC5)c4)c3n2)ccc1N1CCN(C)CC1 |
| 2110 | CN1CCC(Nc2nc(Nc3ccc4c(c3)N(S(=O)(=O)C(C)(C)C)CC4)c3sccc3n2)CC1 |
| 194 | CC(C)(C)S(=O)(=O)Nc1cccc(Nc2nc(NC3CCNCC3)nc3sccc23)c1 [drawing 237] |
| 208 | CC(C)(C)S(=O)(=O)Nc1cc(-n2ccc3cnc(Nc4ccc(N5CCNCC5)cc4)nc32)ccc1F |
| 155 | Cc1cnc(Nc2ccc(N3CCN(C)CC3)c(F)c2)nc1Nc1ccc2c(c1)N(S(=O)(=O)C(C)(C)C)CC2 [drawing 235] |
| 2670 | CC(C)(C)S(=O)(=O)Nc1cccc(Nc2nc(NCC3CCNCC3)nc3sccc23)c1 [drawing 220] |
| 609 | CN1CCN(c2ccc(Nc3nc(Nc4cccc(NS(=O)(=O)C(C)(C)C)c4)c4ccsc4n3)cc2)CC1 [drawing 153] |
| 1100 | CNCCNc1ncc2cc(-c3cccc(-c4c(C)noc4C)c3)ccc2n1 |
| 2750 | CC(C)(C)S(=O)(=O)N1CCc2ccc(Nc3nc(NC4CCNC4)nc4sccc34)cc21 (centres unmarked) [drawing 217] |
| 7500 | CC1(C)CN(Cc2ccccc2)CCC1Nc1nc(Nc2cccc(NS(=O)(=O)C(C)(C)C)c2)c2ccsc2n1 (centres unmarked) |
| 206 | Cc1ccc(Nc2nc(NC3CCN(C)CC3)nc3sccc23)cc1NS(=O)(=O)C(C)(C)C |
| 1800 | CN1CCN2c3c(F)cc(Nc4ncc5scc(-c6cccc(NS(=O)(=O)C(C)(C)C)c6)c5n4)cc3CC2C1 (centres unmarked) |
| 9740 | COc1ccc(Nc2ncc(-n3ccc4c3CCNC4=O)cn2)cc1 |
| 2390 | CN1CCN(c2ccc(Nc3nc4c(c(Nc5ccc6c(c5)N(S(=O)(=O)C(C)(C)C)CC6)n3)COC4)cc2)CC1 |
